The values below come from PMC12786457, “Studies on the Complexation of Platinum(II) by Some 4-Nitroisothiazoles and the Cytotoxic Activity of the Resulting Complexes” (Molecules, 2025).

Data set [1] has as its system MCF-7 (breast adenocarcinoma). As to the kind of experiment: SRB (sulforhodamine B) viability assay, MCF-7. Format: cell-based, human. The settings on record: for IC50: SRB assay. On the procedure: (§1) The cytotoxicity of the complexes C1–C5 was estimated by examining cell viability using the sulforhodamine B assay. […] However, due to the very poor solubility of the most polar complex C5 in acetone, its initial solution had to be prepared in polar N,N-dimethylacetamide (DMA) (see Section 3.7). Cisplatin was used as the reference drug. The results are presented as IC50 (50% inhibitory concentration), i.e., concentrations that reduce cell survival by 50%. The test was conducted on three cancer cell lines and one normal healthy cell line, namely, breast adenocarcinoma (MCF-7), ovarian adenocarcinoma (ES-2), lung adenocarcinoma (A549), and murine embryonic fibroblast (BALB/3T3).
(§2) Three solid tumor cell lines were used in this study: MCF-7 (breast adenocarcinoma), ES-2 (ovarian adenocarcinoma), and A549 (lung adenocarcinoma). The BALB/3T3 (mouse embryonic fibroblast) cell line was used as a comparative nonpathological tissue. All cell lines were purchased from the American Type Culture Collection (ATCC, Rockville, MD, USA). The preparation of cell cultures for cytotoxicity experiments is described in detail in the following article.
(§3) The initial solutions for subsequent dilutions in biological medium were prepared in a similar manner as described previously. […] The complex C5 was dissolved in the dimethylacetamide (DMA). All the initial solutions were prepared ex tempore and then were added to the culture medium 1:9 (v/v) to obtain a stock solution of 1 mg/mL.
(§4) The test was prepared and performed in the same manner as detailed in the following cited works.
A general note: Sulforhodamine B stains cellular protein and so reports cell mass.

In data set [2] the test system is BALB/3T3 (mouse embryonic fibroblast). Put plainly: SRB (sulforhodamine B) viability assay, normal cells BALB/3T3. Format: cell-based. The settings on record: normoxia, read-out: IC50 ± SD, Normal Cells BALB/3T3, Normoxia. On the procedure: as §1, §2, §3, §4
Data set [3] is described as follows: TLC Rf as a measure of relative lipophilicity. Format: physicochemical. The settings on record: silica gel TLC Al foils. On the procedure: Measurement of the melting points (m.p.) of the obtained compounds was performed with the Büchi M560 melting point device (BÜCHI Labortechnik AG, CH-9230 Flawil/SG, Flawil, Switzerland) and was uncorrected. The ESI-MS (electrospray ionization mass spectroscopy) spectra were recorded with the compactTM Bruker Daltonics Electrospray Ionization Quadrupole Time-of-Flight (ESI-Q-TOF) spectrometer (Bruker Daltonics GmbH, Bremen, Germany). The ESI-MS measurements for new compounds were performed in both positive- and negative-ion mode in LC-MS-grade using LC-MS grade methanol as a solvent. ESI-MS spectral analysis and the simulation of the theoretical monoisotopic mass of detected ions were performed using Bruker Compass Data Analysis 4.2 software (Bruker Daltonics GmbH, Bremen, Germany). All ^1H and ^13C-NMR spectra were recorded on the following instruments: Bruker NMR AVANCE III™ 600 MHz spectrometer with Ascend™ technology magnet with a quadruple resonance NMR ‘inverse’ cryoprobe (Bruker Corporation, Billerica, MA, USA) and/or Bruker ARX-300 (300 MHz) spectrometer (Bruker Analytische Messtechnik GmbH, Rheinstetten, Germany). The NMR measurements of samples of the compounds were carried out at room temperature (20–25 °C) using 5 mm tubes in deuterated acetone-d6. NMR chemical shifts were referenced to the solvent signal, i.e., for ^1H-NMR: δ (quintet of residual acetone-d6) = 2.05 ppm and for ^13C-NMR: δ (septet of acetone-d6) = 29.84 ppm. The Nicolet iS50 FT-IR spectrophotometer (Thermo Fisher Scientific Inc., Waltham, MA, USA) was used to record the Attenuated Total Reflectance IR (ATR-FT-IR) spectra (at MIR range 4000–450 cm^−1). Recording of spectra was performed on the diamond crystal surface (32 scans, resolution: 1 cm^−1, measurement temperature: 20–25 °C) with ATR intensity correction in the Laboratory of Elemental Analysis and Structural Research, Faculty of Pharmacy, Wroclaw Medical University. A Fourier transform, Bruker VERTEX 70V vacuum spectrometer equipped with an air-cooled DTGS detector was used to obtain the Far-IR (far-infrared) spectra (below 500 cm^−1) of the Pt(II) complexes. The spectra measurements were conducted with the ATR accessory, such as a diamond ATR crystal, in the resolution of 1 cm^−1 with 64 scans in the Laboratory of Vibrational Spectroscopy of the Faculty of Chemistry at Wrocław University of Science and Technology. No ATR intensity correction was applied to Far-IR spectra. Omnic 9.3.30 and Omnic Specta 2.0 software (Thermo Fisher Scientific Inc.) was used to process and analyze spectra. A double beam U-2800 Spectrophotometer (Hitachi—Science & Technology, Tokyo, Japan) was used to record UV spectra of Pt-complexes (C1 and C2) and reaction rate measurements of the GSH complexes. Dioxane solutions of complexes were used in the following concentrations: c = 2 × 10^−5 M and 3 × 10^−5 M, respectively, for C1 and C2. Measurement of UV spectra was conducted in quartz cuvettes (path length = 10.0 mm) in the range 190–400 nm (sampling interval 1 nm, scan speed 200 nm/min). All UV experiments were performed in the Laboratory of Elemental Analysis and Structural Research, Faculty of Pharmacy, Wroclaw Medical University. Baselines were corrected with pure dioxane as the reference solvent. Thin-layer chromatography (TLC) was used to monitor the progress of the reaction course and determine the purity of the synthesized compounds. Silica gel on TLC Al foils with fluorescent indicator 254 nm (Sigma-Aldrich, Merck Group, Darmstadt, Germany) was used as the stationary phase and chloroform–acetone mixtures (volume ratios 9:1, 7:3, and 1:1) as the eluent. Detection of Pt(II) compounds in the chromatograms was performed using a 0.5% acetone solution of rubeanic acid (dithiooxamide), and organic impurities were detected by observing the plates under UV light at 250 nm. […]

A short description of data set [4]: Solubility in solvents (qualitative). Format: physicochemical.
[5] abbreviates: hypoxia, read-out: IC50 ± SD, MCF-7 (Breast), Hypoxia.
Setting [6] is: normoxia, read-out: IC50 ± SD, MCF-7 (Breast), Normoxia.

Read-outs that look alike come from different tables or passages of the source.

Consider `Cc1nscc1[N+](=O)[O-].Cc1nscc1[N+](=O)[O-].[Cl][Pt][Cl]` [C2, trans-Dichlorobis(3-methyl-4-nitroisothiazole)platinum(II)], for which the figures for the IC50 in data set [1] (setting [5]), in data set [1] (setting [6]) and in data set [2] were 9.07 ± 5.07 µM, 6.16 ± 0.78 µM and 1.14 ± 0.28 µM, respectively. In addition, the “selectivity index (SI), healthy cells vs MCF-7” value in data set [1] (ratio of cytotoxicity towards healthy BALB/3T3 cells to cytotoxicity towards MCF-7, normoxia) is reported as “≈ 0.2”. Moreover, the “Rf, Eluent: Chlorofom:Acetone Ratio 1:1 Vol.” value in data set [3] turned out to be 0.833. In data set [3], the “Rf, Eluent: Chlorofom:Acetone Ratio 9:1 Vol.” value worked out at 0.355. In data set [4], the solubility in acetone result is “weakly soluble”.

Regarding `COC(=O)c1snc(C)c1[N+](=O)[O-].Cc1nscc1[N+](=O)[O-].[Cl][Pt][Cl]` [C3, trans-Dichloro-3-methyl-4-nitroisothiazole 3-Methyl-4-nitro-5-(methoxycarbonyl)isothiazole Platinum(II)], the IC50 came to 7.13 ± 1.93 µM in data set [1] (setting [5]), 5.25 ± 1.01 µM in data set [1] (setting [6]) and 2.94 ± 3.06 µM in data set [2]. Further, the “Rf, Eluent: Chlorofom:Acetone Ratio 1:1 Vol.” value in data set [3] was 0.845. Besides, in data set [3], the “Rf, Eluent: Chlorofom:Acetone Ratio 9:1 Vol.” value was determined as 0.645. For the same compound, the solubility in acetone entry in data set [4] is listed as “slightly soluble”. Moreover, the solubility in chloroform entry in data set [4] is “very poorly soluble”.

For the compound `COC(=O)c1snc(C)c1[N+](=O)[O-].COC(=O)c1snc(C)c1[N+](=O)[O-].[Cl][Pt][Cl]` [C4, trans-Dichlorobis(3-methyl-4-nitro-5-(methoxycarbonyl)isothiazole)platinum(II)], the IC50 in data set [1] (setting [5]) worked out at 7.68 ± 4.45 µM. For the same compound, the IC50 in data set [1] (setting [6]) is 6.94 ± 2.25 µM. In addition, the IC50 in data set [2] was determined as 5.99 ± 1.28 µM. In data set [3], the “Rf, Eluent: Chlorofom:Acetone Ratio 1:1 Vol.” value turned out to be 0.863 and the “Rf, Eluent: Chlorofom:Acetone Ratio 9:1 Vol.” value was 0.828. Further, in data set [4], the solubility in acetone result is on record as “slightly soluble” and the solubility in chloroform entry was “very poorly soluble”.

With “Dichlorobis(3-methyl-4-nitroisothiazole)platinum(II) [C1]”, the IC50 in data set [1] (setting [5]) amounted to 8.45 ± 2.25 µM; in data set [1] (setting [6]) it was 4.59 ± 1.57 µM; in data set [2], 7.31 ± 0.82 µM. For the same compound, the “Rf, Eluent: Chlorofom:Acetone Ratio 1:1 Vol.” value in data set [3] was determined as 0.726. The “Rf, Eluent: Chlorofom:Acetone Ratio 9:1 Vol.” value in data set [3] worked out at 0.054.
